Tested on: yeast genes (expressed mRNA)
Test: DNA chip measurement of expressed mRNA of yeast genes after culture with a toxic chemical substance
Format: cell-based, Saccharomyces cerevisiae S288C
Details: for level of expressed mRNA in the presence of chemical substance / level in the absence of chemical substance: cultured two hours with the chemical substance; for The level of expressed mRNA in the presence of chemical substance/The level of expressed mRNA in the absence of chemical substance: cultured two hours with substance
Method: Yeast (Saccharomyces cerevisiae S288C (a SUC2mal mel gap2 CUP1)) were cultured at 25° C. on YPD medium (yeast extract 1%, polypeptone 2%, glucose 2%). One of toxic chemical substances was added to the cell at logarithmic growth phase, and the cell was further cultured for two hours. Cell was cultured without any chemical substance in the same condition, and was used as a control. Concentrations of the chemical substances were defined to inhibit the growth of the yeast but not lead to death.
After the completion of cultivation, the culture was centrifuged to collect the cells. To the cells, sodium acetate buffer (50 mM sodium acetate, 10 mM EDTA, 1% SDS) was added, and the mixture was shaken at 65° C. for five minutes, followed by returning to room temperature, and obtaining the supernatant, which procedure was repeated two times. To the supernatant, ½ amount of a solution of phenol/chloroform (1:1) was added, and the mixture was centrifuged to give a supernatant, an equal amount of chloroform was added, and the mixture was centrifuged to give a supernatant. To the supernatant, an equal amount of isopropanol containing 0.3 M sodium acetate was added, and the mixture was allowed to stand at room temperature for 30 minutes, after which the mixture was centrifuged to give sediment of the whole RNAs. Seventy % ethanol was added to the sediment, and the mixture was again centrifuged to give sediment, which was then dried and dissolved in water. mRNA was isolated from the whole RNAs as followings. In view of the fact that a poly A chain is attached to the 3′ terminus of mRNA, a polynucleotide having a poly T structure which was immobilized on the surface of latex beads was used to trap the mRNA, and then the mRNA was washed and eluted with spine column (Oligotex-dT30<Super>mRNA Purification Kit, Takara). Reverse transcription of the mRNA was conducted with a reverse transcriptase (Super Script II Reverse Transcriptase; catalogue No. 18064-014, GibcoBRL) using fluorescence-labeled nucleotides to give cDNAs that were introduced with Cy3-dUTP or Cy5-dUTP during the reverse transcription.
The labeled cDNAs were dissolved in TE buffer (10 mM Tris-HCl/1 mM EDTA, pH 8.0), and the solution was dropped on the DNA chip containing the whole genes of yeast (DNA Chip Research Inc. Japan) so that the cDNAs were hybridized on the DNA chip at 65° C. for over 12 hours. The fluoresces intensity of the DNA chip was read with a scanner, and the ratio relative to the fluorescence intensity resulting from the absence of chemical substance was estimated as the following, which is shown in Tables 1 to 9.
In the Tables, “Intensity” indicated in the rightmost column is a value of the level of expressed mRNA of each gene in control cells as divided by the average level of the expressions of the whole genes. A gene of which mRNA level is lower in control, and is higher in cases of addition of chemical substance, is especially useful in the detection of toxic substances.
Here, when a ratio of an amount of mRNA expressed in the presence of the chemical substance to an amount of mRNA expressed in the absence of the chemical substance is two or more, then it is considered significant.

Cl[C@H]1[C@H](Cl)[C@@H](Cl)[C@@H](Cl)[C@H](Cl)[C@H]1Cl [(7), γ-Hexachlorocyclohexane]
The level of expressed mRNA in the presence of chemical substance/The level of expressed mRNA in the absence of chemical substance, yeast gene YBR036C (gene YBR036C, Metabolism protein genes, DNA chip fluorescence ratio): 1.3
The level of expressed mRNA in the presence of chemical substance/The level of expressed mRNA in the absence of chemical substance, yeast gene YBR298C (gene YBR298C, Metabolism protein genes, DNA chip fluorescence ratio): 1.7
The level of expressed mRNA in the presence of chemical substance/The level of expressed mRNA in the absence of chemical substance, yeast gene YDL067C (gene YDL067C (mitochondria-located protein gene), yeast cultured two hours with chemical substance, DNA chip fluorescence ratio to control): 0.8
The level of expressed mRNA in the presence of chemical substance/The level of expressed mRNA in the absence of chemical substance, yeast gene YDL078C (gene YDL078C, Metabolism protein genes, DNA chip fluorescence ratio): 1.7
The level of expressed mRNA in the presence of chemical substance/The level of expressed mRNA in the absence of chemical substance, yeast gene YDL215C (gene YDL215C, Metabolism protein genes, DNA chip fluorescence ratio): 1.9
The level of expressed mRNA in the presence of chemical substance/The level of expressed mRNA in the absence of chemical substance, yeast gene YDR079W (gene YDR079W (mitochondria-located protein gene), yeast cultured two hours with chemical substance, DNA chip fluorescence ratio to control): 1.3
The level of expressed mRNA in the presence of chemical substance/The level of expressed mRNA in the absence of chemical substance, yeast gene YDR297W (gene YDR297W, Metabolism protein genes, DNA chip fluorescence ratio): 0.6
The level of expressed mRNA in the presence of chemical substance/The level of expressed mRNA in the absence of chemical substance, yeast gene YDR387C (gene YDR387C, Metabolism protein genes, DNA chip fluorescence ratio): 1.3
The level of expressed mRNA in the presence of chemical substance/The level of expressed mRNA in the absence of chemical substance, yeast gene YGL035C (gene YGL035C, Metabolism protein genes, DNA chip fluorescence ratio): 1.2
The level of expressed mRNA in the presence of chemical substance/The level of expressed mRNA in the absence of chemical substance, yeast gene YGR062C (gene YGR062C (mitochondria-located protein gene), yeast cultured two hours with chemical substance, DNA chip fluorescence ratio to control): 1.3
The level of expressed mRNA in the presence of chemical substance/The level of expressed mRNA in the absence of chemical substance, yeast gene YGR287C (gene YGR287C, Metabolism protein genes, DNA chip fluorescence ratio): 2.2
The level of expressed mRNA in the presence of chemical substance/The level of expressed mRNA in the absence of chemical substance, yeast gene YJL070C (gene YJL070C, Metabolism protein genes, DNA chip fluorescence ratio): 1.4
The level of expressed mRNA in the presence of chemical substance/The level of expressed mRNA in the absence of chemical substance, yeast gene YJL096W (gene YJL096W (mitochondria-located protein gene), yeast cultured two hours with chemical substance, DNA chip fluorescence ratio to control): 1.7
The level of expressed mRNA in the presence of chemical substance/The level of expressed mRNA in the absence of chemical substance, yeast gene YJL180C (gene YJL180C (mitochondria-located protein gene), yeast cultured two hours with chemical substance, DNA chip fluorescence ratio to control): 1.6
The level of expressed mRNA in the presence of chemical substance/The level of expressed mRNA in the absence of chemical substance, yeast gene YKR009C (gene YKR009C, Metabolism protein genes, DNA chip fluorescence ratio): 1.0
The level of expressed mRNA in the presence of chemical substance/The level of expressed mRNA in the absence of chemical substance, yeast gene YLR295C (gene YLR295C (mitochondria-located protein gene), yeast cultured two hours with chemical substance, DNA chip fluorescence ratio to control): 1.1
The level of expressed mRNA in the presence of chemical substance/The level of expressed mRNA in the absence of chemical substance, yeast gene YLR351C (gene YLR351C, Metabolism protein genes, DNA chip fluorescence ratio): 1.4
The level of expressed mRNA in the presence of chemical substance/The level of expressed mRNA in the absence of chemical substance, yeast gene YLR375W (gene YLR375W, Metabolism protein genes, DNA chip fluorescence ratio): 0.9
The level of expressed mRNA in the presence of chemical substance/The level of expressed mRNA in the absence of chemical substance, yeast gene YMR023C (gene YMR023C (mitochondria-located protein gene), yeast cultured two hours with chemical substance, DNA chip fluorescence ratio to control): 1.9
The level of expressed mRNA in the presence of chemical substance/The level of expressed mRNA in the absence of chemical substance, yeast gene YMR267W (gene YMR267W (mitochondria-located protein gene), yeast cultured two hours with chemical substance, DNA chip fluorescence ratio to control): 1.2
The level of expressed mRNA in the presence of chemical substance/The level of expressed mRNA in the absence of chemical substance, yeast gene YMR267W (gene YMR267W, Metabolism protein genes, DNA chip fluorescence ratio): 1.2
The level of expressed mRNA in the presence of chemical substance/The level of expressed mRNA in the absence of chemical substance, yeast gene YMR278W (gene YMR278W, Metabolism protein genes, DNA chip fluorescence ratio): 1.8
The level of expressed mRNA in the presence of chemical substance/The level of expressed mRNA in the absence of chemical substance, yeast gene YMR293C (gene YMR293C, Metabolism protein genes, DNA chip fluorescence ratio): 1.2
The level of expressed mRNA in the presence of chemical substance/The level of expressed mRNA in the absence of chemical substance, yeast gene YNL073W (gene YNL073W (mitochondria-located protein gene), yeast cultured two hours with chemical substance, DNA chip fluorescence ratio to control): 1.1
The level of expressed mRNA in the presence of chemical substance/The level of expressed mRNA in the absence of chemical substance, yeast gene YNR072W (gene YNR072W, Metabolism protein genes, DNA chip fluorescence ratio): 1.5
The level of expressed mRNA in the presence of chemical substance/The level of expressed mRNA in the absence of chemical substance, yeast gene YOL096C (gene YOL096C, Metabolism protein genes, DNA chip fluorescence ratio): 1.7
The level of expressed mRNA in the presence of chemical substance/The level of expressed mRNA in the absence of chemical substance, yeast gene YOR180C (gene YOR180C, Metabolism protein genes, DNA chip fluorescence ratio): 0.8
The level of expressed mRNA in the presence of chemical substance/The level of expressed mRNA in the absence of chemical substance, yeast gene YOR316C (gene YOR316C (mitochondria-located protein gene), yeast cultured two hours with chemical substance, DNA chip fluorescence ratio to control): 1.4
The level of expressed mRNA in the presence of chemical substance/The level of expressed mRNA in the absence of chemical substance, yeast gene YOR363C (gene YOR363C, Metabolism protein genes, DNA chip fluorescence ratio): 0.7
The level of expressed mRNA in the presence of chemical substance/The level of expressed mRNA in the absence of chemical substance, yeast gene YPL040C (gene YPL040C (mitochondria-located protein gene), yeast cultured two hours with chemical substance, DNA chip fluorescence ratio to control): 0.8
The level of expressed mRNA in the presence of chemical substance/The level of expressed mRNA in the absence of chemical substance, yeast gene YPL134C (gene YPL134C (mitochondria-located protein gene), yeast cultured two hours with chemical substance, DNA chip fluorescence ratio to control): 1.2
The level of expressed mRNA in the presence of chemical substance/The level of expressed mRNA in the absence of chemical substance, yeast gene YPR184W (gene YPR184W, Metabolism protein genes, DNA chip fluorescence ratio): 1.3
level of expressed mRNA in the presence of chemical substance / level in the absence of chemical substance (yeast gene YAL018C): 1.0
The level of expressed mRNA in the presence of chemical substance/The level of expressed mRNA in the absence of chemical substance (yeast gene YAL053W): 0.7
level of expressed mRNA in the presence of chemical substance / level in the absence of chemical substance (yeast gene YAR047C): 1.2
level of expressed mRNA in the presence of chemical substance / level in the absence of chemical substance (yeast gene YAR064W): 1.1
level of expressed mRNA in the presence of chemical substance / level in the absence of chemical substance (yeast gene YBL044W): 1.1
The level of expressed mRNA in the presence of chemical substance/The level of expressed mRNA in the absence of chemical substance (yeast gene YBL048W): 1.9
The level of expressed mRNA in the presence of chemical substance/The level of expressed mRNA in the absence of chemical substance (yeast gene YBL107C): 2.1
level of expressed mRNA in the presence of chemical substance / level in the absence of chemical substance (yeast gene YBR012C): 1.5
level of expressed mRNA in the presence of chemical substance / level in the absence of chemical substance (yeast gene YBR066C): 1.3
level of expressed mRNA in the presence of chemical substance / level in the absence of chemical substance (yeast gene YBR124W): 1.1
level of expressed mRNA in the presence of chemical substance / level in the absence of chemical substance (yeast gene YBR162C): 0.3
level of expressed mRNA in the presence of chemical substance / level in the absence of chemical substance (yeast gene YBR287W): 1.1
level of expressed mRNA in the presence of chemical substance / level in the absence of chemical substance (yeast gene YCL056C): 1.6
level of expressed mRNA in the presence of chemical substance / level in the absence of chemical substance (yeast gene YCR007C): 2.0
level of expressed mRNA in the presence of chemical substance / level in the absence of chemical substance (yeast gene YDL046W): 1.2
The level of expressed mRNA in the presence of chemical substance/The level of expressed mRNA in the absence of chemical substance (yeast gene YDL072C): 1.8
The level of expressed mRNA in the presence of chemical substance/The level of expressed mRNA in the absence of chemical substance (yeast gene YDL204W): 3.2
The level of expressed mRNA in the presence of chemical substance/The level of expressed mRNA in the absence of chemical substance (yeast gene YDL222C): 1.0
level of expressed mRNA in the presence of chemical substance / level in the absence of chemical substance (yeast gene YDR090C): 1.5
level of expressed mRNA in the presence of chemical substance / level in the absence of chemical substance (yeast gene YDR128W): 0.8

— patent US20100041089A1, “IMPROVED METHOD FOR DETECTING CHEMICAL […]” (priority 2006, published 2010)
